Experiments:
full-length WT STING = target: T1, full-length WT STING (Homo sapiens, UniProt Q86WV6, H232R); assay: 3H-cGAMP filtration binding assay (WT STING); details: competition with tritiated cGAMP ligand, WT STING membrane
T1 construct: Full-Length STING WT [STING(1-379)H232R-gg-AviTag-gs-; made in house; host or cells: Trichoplusia ni insect cells via baculovirus (virus made in Sf21); used as a membrane preparation
Description: (§1) The ability of compounds to bind STING is quantified by their ability to compete with tritiated cGAMP ligand for human STING receptor membrane using a radioactive filter-binding assay. The binding assay employs STING receptor obtained from Trichoplusia ni cell membranes (T. ni; Expression Systems, cat #94-002F, www.expressionsystems.com) overexpressing full-length WT STING and tritiated cGAMP ligand.
The basic WT STING filtration assay protocol is as follows: 16 nM of [^3H] c-GAMP ligand was prepared by diluting into assay buffer, and 50 uL of this working stock was manually added to each well of the assay plate. After ligand addition, 2 uL of either titrated test compound, DMSO control (Sigma #276855), or cold cGAMP control was added to the appropriate wells using a BIOMEK FX. The serially titrated compound was prepared on a Hamilton STARPlus CORE in a 96-well plate (Greiner, #651201) using a 1:3 ten-point dose response format. […] Tritium levels for each reaction well were then measured using a PerkinElmer TopCount plate reader.
(§2) After normalization to controls, the percent activity for each compound concentration was calculated by measuring the amount of remaining radioactivity. […]

THP1 cells = assay: IFN-β secretion in THP1 cell culture (5 h); type: cell-based, human; details: 30 μM compound, 30 uM cGAMP = 100%
Description: The ability of compounds to stimulate the secretion of interferon-beta from THP1 cells was measured using a human IFN-β AlphaLISA kit (Perkin Elmer, Cat. No. AL265F). The basic protocol is as follows:
A Labcyte Echo 550 acoustic dispenser was used to transfer 120 nL of compound dissolved in DMSO into the wells of an empty, sterile 384-well microplate, (Corning, Cat. No. 3712). THP1 cells (American Type Culture Collection, Cat. No. TIB202) previously frozen in Recovery Medium (Life Technologies, Cat. No. 12648-010) were thawed and immediately diluted 10-fold into 37° C. assay medium (RPMI 1640+L-Glutamine & phenol red, Life Technologies, Cat. No. 11875-085; 0.5% heat inactivated fetal bovine serum, Sigma Aldrich, Cat. No. F4135; 1 mM Sodium Pyruvate, Life Technologies, Cat. No. 11360-070; lx non-essential amino acids; Life Technologies, Cat. No. 11140-050). The cell viability and count was ascertained using a Beckman Coulter V-Cell XR cell counter. The cell suspension was centrifuged at 200×g for 5 min at RT. […]
The assay was started by dispensing 40 μL of the previously prepared cell suspension into the wells of the plate containing compounds. […] The plate was then read on a Perkin Elmer Envision (λex=680 nm, λcm=570 nm). The percent effect of the AlphaLISA signal at each compound concentration was calculated based on 30 uM cGAMP positive controls and 0.3% DMSO negative controls. […]

full-length HAQ STING = target: T2, full-length HAQ STING (Homo sapiens, UniProt Q86WV6, G230A/H232R/R293Q/R71H); assay: 3H-cGAMP filtration binding assay (HAQ STING); details: competition with tritiated cGAMP ligand, HAQ STING membrane
T2 construct: Full-Length HAQ STING [STING(1-379)R71H, G230A, H232R,; made in house; host or cells: Trichoplusia ni (Hi-Five) insect cells via baculovirus (virus made in Sf21); used as a membrane preparation
T2 sequence (Q86WV6 with tags, fused parts or gaps R71H/G230A/H232R/R293Q): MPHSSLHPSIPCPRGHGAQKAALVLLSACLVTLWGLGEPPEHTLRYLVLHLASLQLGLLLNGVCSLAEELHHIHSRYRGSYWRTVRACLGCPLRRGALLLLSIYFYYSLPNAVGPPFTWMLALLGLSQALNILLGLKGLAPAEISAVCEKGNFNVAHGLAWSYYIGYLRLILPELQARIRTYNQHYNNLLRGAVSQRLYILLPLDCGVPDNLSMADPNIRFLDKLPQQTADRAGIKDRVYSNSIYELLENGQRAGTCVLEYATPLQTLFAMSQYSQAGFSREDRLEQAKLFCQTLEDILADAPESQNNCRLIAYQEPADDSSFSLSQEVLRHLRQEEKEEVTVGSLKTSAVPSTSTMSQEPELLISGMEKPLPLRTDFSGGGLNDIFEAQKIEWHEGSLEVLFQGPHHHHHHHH
From the text: The ability of compounds to bind STING is quantified by the ability to compete with tritiated cGAMP ligand for human STING receptor membrane using a radioactive filter-binding assay. The binding assay employs STING receptor obtained from Hi-Five cell membranes overexpressing full-length HAQ STING prepared in-house and tritiated cGAMP ligand also purified in-house.
as §1, with “HAQ” for “WT”
The basic HAQ STING filtration assay protocol is as follows: The compounds were serially titrated by the Hamilton STARPlus CORE in a 96-well plate (Greiner, #651201) using a 1:3 ten-point dose response format. […] Tritium levels for each reaction well were then measured using a PerkinElmer TopCount plate reader.
as §2

T1 sequence (Q86WV6 with tags, fused parts or gaps H232R): as the sequence (Q86WV6 with tags, fused parts or gaps R71H/G230A/H232R/R293Q) above, with H71R, A230G, Q293R counted along it

EC50 (full-length WT STING): 118 nM
EC50 (full-length HAQ STING): 49.1 nM
Compound: Nc1nc2c(ncn2[C@@H]2O[C@@H]3COP(=O)(S)O[C@@H]4C[C@H](n5cnc6c(N)ncnc65)O[C@@H]4COP(=O)(S)O[C@H]2C3)c(=O)[nH]1 (stereo partly drawn) [Example 1, 2-amino-9-[(5S,7R,8S,12aR,14R,15aR)-14-(6-amino-9H-purin-9-yl)-2,10-dioxido-2,10-disulfanyloctahydro-12H-5,8-methanofuro[3,2-1][1,3,6,9,11,2,10]pentaoxadiphosphacyclotetradecin-7-yl]-1,9-dihydro-6H-purin-6-one]
% Effect at 30 μM relative to 2′3′-cGAMP (THP1 cells): 107%

— patent US20220024964A1, “Cyclic Di-Nucleotide Compounds as STING Agonists” (Merck Sharp & Dohme Corp., priority 2018, published 2022)
